Columns and labels:
[1] = target: Dual specificity tyrosine-phosphorylation-regulated kinase 1B (Homo sapiens) (UniProt Q9Y463); conditions: Compound concentration 1000.0 nM
[2] = target: Ribosomal protein S6 kinase alpha-2 (Homo sapiens) (UniProt Q15349); conditions: Compound concentration 1000.0 nM
[3] = target: Insulin receptor (Homo sapiens) (UniProt P06213); conditions: Compound concentration 1000.0 nM
[4] = target: Inhibitor of nuclear factor kappa-B kinase subunit epsilon (Homo sapiens) (UniProt Q14164); conditions: Compound concentration 1000.0 nM
[5] = target: Alpha-2B adrenergic receptor (Homo sapiens) (UniProt P18089); conditions: Compound concentration 10.0 uM
[6] = target: STE20/SPS1-related proline-alanine-rich protein kinase (Homo sapiens) (UniProt Q9UEW8); conditions: Compound concentration 1000.0 nM
[7] = target: Mitogen-activated protein kinase kinase kinase 3 (Homo sapiens) (UniProt Q99759); conditions: Compound concentration 1000.0 nM
[8] = target: TGF-beta receptor type-1 (Homo sapiens) (UniProt P36897); conditions: Compound concentration 1000.0 nM
[9] = target: Alpha-2C adrenergic receptor (Homo sapiens) (UniProt P18825); conditions: Compound concentration 10.0 uM
[10] = species on record: Rattus norvegicus; conditions: Compound concentration 10.0 uM
[11] = target: Mitogen-activated protein kinase kinase kinase 12 (Homo sapiens) (UniProt Q12852); conditions: Compound concentration 1000.0 nM
[12] = target: Calcium-dependent protein kinase 1 (Plasmodium falciparum) (UniProt P62344); conditions: Compound concentration 1000.0 nM
[13] = target: Platelet-derived growth factor receptor beta (Homo sapiens) (UniProt P09619); conditions: Compound concentration 1000.0 nM
[14] = tested on: Tyrosine-protein kinase ABL1 (Homo sapiens), P00519 [F317L]; conditions: Compound concentration 1000.0 nM
[15] = target: Serine/threonine-protein kinase D3 (Homo sapiens) (UniProt O94806); conditions: Compound concentration 1000.0 nM
Serine/threonine-protein kinase D3 (Homo sapiens), sequence (O94806 whole entry): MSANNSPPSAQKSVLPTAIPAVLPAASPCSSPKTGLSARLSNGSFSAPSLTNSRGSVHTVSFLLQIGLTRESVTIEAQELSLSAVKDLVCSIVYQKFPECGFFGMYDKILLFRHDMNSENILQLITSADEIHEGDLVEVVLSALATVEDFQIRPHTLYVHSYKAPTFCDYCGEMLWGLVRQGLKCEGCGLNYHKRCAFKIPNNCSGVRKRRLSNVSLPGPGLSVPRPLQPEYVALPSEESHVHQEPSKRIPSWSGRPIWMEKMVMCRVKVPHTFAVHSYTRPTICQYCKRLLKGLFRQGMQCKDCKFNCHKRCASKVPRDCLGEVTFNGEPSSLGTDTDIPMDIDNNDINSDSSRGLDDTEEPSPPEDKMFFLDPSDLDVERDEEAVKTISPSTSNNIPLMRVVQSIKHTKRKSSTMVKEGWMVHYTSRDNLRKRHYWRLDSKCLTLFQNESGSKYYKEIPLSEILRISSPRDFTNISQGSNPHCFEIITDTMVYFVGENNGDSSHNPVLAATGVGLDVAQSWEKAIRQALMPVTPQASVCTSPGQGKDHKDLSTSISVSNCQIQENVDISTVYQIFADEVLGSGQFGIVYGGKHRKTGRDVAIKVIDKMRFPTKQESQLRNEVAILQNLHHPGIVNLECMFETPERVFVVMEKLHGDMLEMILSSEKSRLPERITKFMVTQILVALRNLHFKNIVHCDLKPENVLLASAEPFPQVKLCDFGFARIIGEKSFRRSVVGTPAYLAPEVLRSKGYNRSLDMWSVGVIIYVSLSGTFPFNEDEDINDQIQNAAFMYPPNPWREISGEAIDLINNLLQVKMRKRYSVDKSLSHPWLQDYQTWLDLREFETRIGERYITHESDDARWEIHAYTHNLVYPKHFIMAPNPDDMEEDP

[16] = target: 5-hydroxytryptamine receptor 2B (Homo sapiens) (UniProt P41595); conditions: Compound concentration 10.0 uM
5-hydroxytryptamine receptor 2B (Homo sapiens), sequence (P41595 whole entry): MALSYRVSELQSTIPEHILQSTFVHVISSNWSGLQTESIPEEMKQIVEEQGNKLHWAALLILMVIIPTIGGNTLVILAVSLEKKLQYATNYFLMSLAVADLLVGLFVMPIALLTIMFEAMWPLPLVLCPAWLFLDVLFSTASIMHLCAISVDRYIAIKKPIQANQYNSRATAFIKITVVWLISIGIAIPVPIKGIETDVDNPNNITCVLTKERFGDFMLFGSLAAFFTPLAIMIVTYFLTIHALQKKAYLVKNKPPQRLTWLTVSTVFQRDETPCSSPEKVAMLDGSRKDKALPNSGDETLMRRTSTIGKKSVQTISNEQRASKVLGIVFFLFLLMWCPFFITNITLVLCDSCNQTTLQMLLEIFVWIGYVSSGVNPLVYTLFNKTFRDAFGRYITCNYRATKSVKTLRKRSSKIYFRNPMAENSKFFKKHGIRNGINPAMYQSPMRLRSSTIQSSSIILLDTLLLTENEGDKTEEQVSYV

[17] = target: Cyclin-dependent kinase 18 (Homo sapiens) (UniProt Q07002); conditions: Compound concentration 1000.0 nM
[18] = target: Inhibitor of nuclear factor kappa-B kinase subunit beta (Homo sapiens) (UniProt O14920); conditions: Compound concentration 1000.0 nM
[19] = tested on: Tyrosine-protein kinase ABL1 (Homo sapiens), P00519 [H396P]; conditions: Compound concentration 1000.0 nM
[20] = target: Receptor tyrosine-protein kinase erbB-2 (Homo sapiens) (UniProt P04626); conditions: Compound concentration 1000.0 nM
[21] = target: Serine/threonine-protein kinase SIK1 (Homo sapiens) (UniProt P57059); conditions: Compound concentration 1000.0 nM
Serine/threonine-protein kinase SIK1 (Homo sapiens), sequence (P57059 whole entry): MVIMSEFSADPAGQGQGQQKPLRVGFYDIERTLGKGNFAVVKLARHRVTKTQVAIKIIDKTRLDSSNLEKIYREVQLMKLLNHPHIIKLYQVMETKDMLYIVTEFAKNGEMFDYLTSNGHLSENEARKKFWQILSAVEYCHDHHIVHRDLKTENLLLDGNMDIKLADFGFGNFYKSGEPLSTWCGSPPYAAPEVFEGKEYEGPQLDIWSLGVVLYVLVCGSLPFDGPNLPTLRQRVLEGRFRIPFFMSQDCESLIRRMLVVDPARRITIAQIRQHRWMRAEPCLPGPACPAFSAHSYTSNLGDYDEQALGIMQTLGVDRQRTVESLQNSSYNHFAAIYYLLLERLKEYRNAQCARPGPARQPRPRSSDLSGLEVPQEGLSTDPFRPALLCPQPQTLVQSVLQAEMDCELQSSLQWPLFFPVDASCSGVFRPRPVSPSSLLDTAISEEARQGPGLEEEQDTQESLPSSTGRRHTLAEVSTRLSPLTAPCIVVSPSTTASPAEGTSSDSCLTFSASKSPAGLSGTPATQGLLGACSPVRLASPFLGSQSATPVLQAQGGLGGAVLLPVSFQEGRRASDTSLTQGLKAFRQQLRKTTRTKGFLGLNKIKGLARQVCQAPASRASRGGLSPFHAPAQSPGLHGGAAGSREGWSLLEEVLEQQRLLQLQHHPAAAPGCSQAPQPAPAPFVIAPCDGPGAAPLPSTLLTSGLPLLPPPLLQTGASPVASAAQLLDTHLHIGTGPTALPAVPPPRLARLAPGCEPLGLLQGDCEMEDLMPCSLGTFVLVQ

[22] = target: D(3) dopamine receptor (Homo sapiens) (UniProt P35462); conditions: Compound concentration 10.0 uM
[23] = target: Mitogen-activated protein kinase kinase kinase kinase 5 (Homo sapiens) (UniProt Q9Y4K4); conditions: Compound concentration 1000.0 nM
[24] = target: ALK tyrosine kinase receptor (Homo sapiens) (UniProt Q9UM73); conditions: Compound concentration 1000.0 nM
ALK tyrosine kinase receptor (Homo sapiens), sequence (Q9UM73 19-1620 limits assumed): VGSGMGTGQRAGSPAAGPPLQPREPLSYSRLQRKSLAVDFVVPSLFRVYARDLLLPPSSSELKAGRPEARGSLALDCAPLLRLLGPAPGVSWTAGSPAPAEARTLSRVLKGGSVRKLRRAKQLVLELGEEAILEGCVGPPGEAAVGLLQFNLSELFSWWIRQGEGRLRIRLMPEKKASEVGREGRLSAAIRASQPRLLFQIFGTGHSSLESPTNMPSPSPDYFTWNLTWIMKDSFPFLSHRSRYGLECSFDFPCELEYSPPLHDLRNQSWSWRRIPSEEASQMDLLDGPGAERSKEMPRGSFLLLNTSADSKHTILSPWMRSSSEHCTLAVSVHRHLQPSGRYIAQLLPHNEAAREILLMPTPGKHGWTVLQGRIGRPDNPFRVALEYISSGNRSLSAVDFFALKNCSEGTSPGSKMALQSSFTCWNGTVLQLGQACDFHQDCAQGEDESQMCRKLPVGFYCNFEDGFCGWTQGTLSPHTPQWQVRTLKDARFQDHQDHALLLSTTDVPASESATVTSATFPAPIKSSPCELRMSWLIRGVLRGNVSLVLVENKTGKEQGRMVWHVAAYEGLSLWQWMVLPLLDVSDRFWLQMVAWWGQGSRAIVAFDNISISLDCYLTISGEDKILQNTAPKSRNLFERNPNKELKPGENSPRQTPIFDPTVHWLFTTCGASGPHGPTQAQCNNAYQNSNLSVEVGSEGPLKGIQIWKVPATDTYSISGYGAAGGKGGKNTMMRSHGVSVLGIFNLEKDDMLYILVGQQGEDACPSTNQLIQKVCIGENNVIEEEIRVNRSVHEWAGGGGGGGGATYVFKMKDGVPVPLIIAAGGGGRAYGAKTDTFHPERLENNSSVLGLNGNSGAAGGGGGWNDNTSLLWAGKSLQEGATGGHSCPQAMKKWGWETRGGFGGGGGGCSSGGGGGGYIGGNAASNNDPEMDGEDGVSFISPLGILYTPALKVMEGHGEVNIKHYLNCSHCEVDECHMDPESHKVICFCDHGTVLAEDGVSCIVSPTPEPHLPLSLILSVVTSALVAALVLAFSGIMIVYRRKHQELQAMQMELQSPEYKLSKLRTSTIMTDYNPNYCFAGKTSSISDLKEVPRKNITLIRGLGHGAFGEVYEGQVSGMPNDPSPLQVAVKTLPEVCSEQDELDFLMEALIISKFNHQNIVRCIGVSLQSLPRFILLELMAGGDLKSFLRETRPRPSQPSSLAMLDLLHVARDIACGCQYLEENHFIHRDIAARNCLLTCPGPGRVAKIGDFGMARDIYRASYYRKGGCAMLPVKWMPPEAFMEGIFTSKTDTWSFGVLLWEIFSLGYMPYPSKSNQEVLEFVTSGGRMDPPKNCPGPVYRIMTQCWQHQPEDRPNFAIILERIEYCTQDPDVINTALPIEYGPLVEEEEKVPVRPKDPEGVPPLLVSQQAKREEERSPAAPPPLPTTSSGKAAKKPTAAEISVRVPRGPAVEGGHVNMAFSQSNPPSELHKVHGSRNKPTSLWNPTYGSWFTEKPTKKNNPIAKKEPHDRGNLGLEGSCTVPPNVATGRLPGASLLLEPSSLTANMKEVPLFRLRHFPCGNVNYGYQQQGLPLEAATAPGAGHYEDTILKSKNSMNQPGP

[25] = target: TRAF2 and NCK-interacting protein kinase (Homo sapiens) (UniProt Q9UKE5); conditions: Compound concentration 1000.0 nM
[26] = target: Mitogen-activated protein kinase kinase kinase 7 (Homo sapiens) (UniProt O43318); conditions: Compound concentration 1000.0 nM
Mitogen-activated protein kinase kinase kinase 7 (Homo sapiens), sequence (O43318 whole entry): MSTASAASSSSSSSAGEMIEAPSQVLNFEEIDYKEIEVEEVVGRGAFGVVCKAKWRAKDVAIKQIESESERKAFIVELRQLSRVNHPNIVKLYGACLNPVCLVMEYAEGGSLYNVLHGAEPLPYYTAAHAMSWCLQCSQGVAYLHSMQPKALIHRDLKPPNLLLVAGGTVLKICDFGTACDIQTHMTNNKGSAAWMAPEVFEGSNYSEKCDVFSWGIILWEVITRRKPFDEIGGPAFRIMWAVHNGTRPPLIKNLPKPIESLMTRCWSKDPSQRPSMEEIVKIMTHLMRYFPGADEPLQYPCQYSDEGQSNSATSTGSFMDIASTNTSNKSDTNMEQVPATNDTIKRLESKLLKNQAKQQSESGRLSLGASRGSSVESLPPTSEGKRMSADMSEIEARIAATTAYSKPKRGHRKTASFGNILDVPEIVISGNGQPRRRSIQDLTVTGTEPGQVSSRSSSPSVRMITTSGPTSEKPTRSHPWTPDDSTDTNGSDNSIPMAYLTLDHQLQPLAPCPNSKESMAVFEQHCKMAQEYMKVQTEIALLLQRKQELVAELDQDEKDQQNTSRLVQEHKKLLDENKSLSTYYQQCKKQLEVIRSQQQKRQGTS

[27] = target: Serine/threonine-protein kinase Sgk1 (Homo sapiens) (UniProt O00141); conditions: Compound concentration 1000.0 nM
[28] = tested on: Phosphatidylinositol 4,5-bisphosphate 3-kinase catalytic subunit alpha isoform (Homo sapiens), P42336 [Q546K]; conditions: Compound concentration 1000.0 nM
[29] = target: Ephrin type-A receptor 2 (Homo sapiens) (UniProt P29317); conditions: Compound concentration 1000.0 nM
[30] = target: Serine/threonine-protein kinase PAK 3 (Homo sapiens) (UniProt O75914); conditions: Compound concentration 1000.0 nM
[31] = target: Serine/threonine-protein kinase Sgk2 (Homo sapiens) (UniProt Q9HBY8); conditions: Compound concentration 1000.0 nM
[32] = target: Activin receptor type-1 (Homo sapiens) (UniProt Q04771); conditions: Compound concentration 1000.0 nM
[33] = target: Serine/threonine-protein kinase RIO1 (Homo sapiens) (UniProt Q9BRS2); conditions: Compound concentration 1000.0 nM
[34] = target: Calcium/calmodulin-dependent protein kinase type II subunit alpha (Homo sapiens) (UniProt Q9UQM7); conditions: Compound concentration 1000.0 nM
[35] = target: High affinity nerve growth factor receptor (Homo sapiens) (UniProt P04629); conditions: Compound concentration 1000.0 nM
[36] = tested on: Tyrosine-protein kinase ABL1 (Homo sapiens), P00519 [M351T]; conditions: Compound concentration 1000.0 nM
[37] = target: cGMP-dependent protein kinase 1 (Homo sapiens) (UniProt Q13976); conditions: Compound concentration 1000.0 nM
[38] = target: Receptor-type tyrosine-protein kinase FLT3 (Homo sapiens) (UniProt P36888); conditions: Compound concentration 1000.0 nM
[39] = target: Serine/threonine-protein kinase PLK3 (Homo sapiens) (UniProt Q9H4B4); conditions: Compound concentration 1000.0 nM
[40] = target: SRSF protein kinase 2 (Homo sapiens) (UniProt P78362); conditions: Compound concentration 1000.0 nM
[41] = target: Casein kinase I isoform gamma-1 (Homo sapiens) (UniProt Q9HCP0); conditions: Compound concentration 1000.0 nM
[42] = target: Dual specificity testis-specific protein kinase 1 (Homo sapiens) (UniProt Q15569); conditions: Compound concentration 1000.0 nM
[43] = tested on: Epidermal growth factor receptor (Homo sapiens), P00533 [UNDEFINED MUTATION]; conditions: Compound concentration 1000.0 nM
[44] = tested on: Epidermal growth factor receptor (Homo sapiens), P00533 [G719C]; conditions: Compound concentration 1000.0 nM
[45] = target: Activin receptor type-2A (Homo sapiens) (UniProt P27037); conditions: Compound concentration 1000.0 nM

Ribosomal protein S6 kinase alpha-2 (Homo sapiens), sequence (Q15349 whole entry): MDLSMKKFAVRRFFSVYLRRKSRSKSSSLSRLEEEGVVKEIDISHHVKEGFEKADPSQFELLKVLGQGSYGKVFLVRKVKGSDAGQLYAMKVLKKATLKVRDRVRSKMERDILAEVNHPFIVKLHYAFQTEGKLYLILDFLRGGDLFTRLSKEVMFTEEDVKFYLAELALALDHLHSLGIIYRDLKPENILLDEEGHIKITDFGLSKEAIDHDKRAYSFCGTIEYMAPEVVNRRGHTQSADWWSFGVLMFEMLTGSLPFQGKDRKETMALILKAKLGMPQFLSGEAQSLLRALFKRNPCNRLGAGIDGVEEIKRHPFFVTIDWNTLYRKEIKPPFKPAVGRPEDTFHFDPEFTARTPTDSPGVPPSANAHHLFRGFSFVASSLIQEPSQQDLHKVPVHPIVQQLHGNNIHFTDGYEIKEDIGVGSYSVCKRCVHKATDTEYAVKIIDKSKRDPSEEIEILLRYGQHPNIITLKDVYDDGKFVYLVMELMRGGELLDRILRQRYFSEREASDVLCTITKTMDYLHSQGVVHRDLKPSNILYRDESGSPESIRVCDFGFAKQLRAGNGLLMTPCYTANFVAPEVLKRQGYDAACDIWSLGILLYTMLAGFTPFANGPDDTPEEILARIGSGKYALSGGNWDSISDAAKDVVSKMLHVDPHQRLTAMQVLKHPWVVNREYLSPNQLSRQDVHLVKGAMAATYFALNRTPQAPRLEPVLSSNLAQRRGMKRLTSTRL

O=c1nc(-c2ccccn2)sc2ccccc12 [BTZO-1]
inactive: residual activity [1] 100% | residual activity [2] 100% | residual activity [3] 100% | residual activity [4] 100% | inhibition [5] 17% | residual activity [6] 100% | residual activity [7] 77% | residual activity [8] 97% | inhibition [9] -9.43% | inhibition [10] 9.91% | residual activity [11] 100% | residual activity [12] 77% | residual activity [13] 83% | residual activity [14] 100% | residual activity [15] 81% | inhibition [16] 34.3% | residual activity [17] 94% | residual activity [18] 100% | residual activity [19] 99% | residual activity [20] 65% | residual activity [21] 95% | inhibition [22] 13.6% | residual activity [23] 100% | residual activity [24] 84% | residual activity [25] 83% | residual activity [26] 78% | residual activity [27] 99% | residual activity [28] 100% | residual activity [29] 100% | residual activity [30] 84% | residual activity [31] 85% | residual activity [32] 79% | residual activity [33] 85% | residual activity [34] 100% | residual activity [35] 100% | residual activity [36] 100% | residual activity [37] 100% | residual activity [38] 93% | residual activity [39] 82% | residual activity [40] 100% | residual activity [41] 96% | residual activity [42] 84% | residual activity [43] 70% | residual activity [44] 77% | residual activity [45] 91%

O=C1NC(c2ccccn2)Sc2ccccc21 (stereo not given) [BTZO-4]
inactive: residual activity [1] 100% | residual activity [2] 93% | residual activity [3] 88% | residual activity [4] 94% | inhibition [5] -5.58% | residual activity [6] 89% | residual activity [7] 93% | residual activity [8] 100% | inhibition [9] -4.89% | inhibition [10] 22.6% | residual activity [11] 100% | residual activity [12] 57% | residual activity [13] 83% | residual activity [14] 100% | residual activity [15] 100% | inhibition [16] -5.37% | residual activity [17] 93% | residual activity [18] 100% | residual activity [19] 84% | residual activity [20] 71% | residual activity [21] 88% | inhibition [22] 27.8% | residual activity [23] 100% | residual activity [24] 89% | residual activity [25] 100% | residual activity [26] 99% | residual activity [27] 87% | residual activity [28] 100% | residual activity [29] 100% | residual activity [30] 83% | residual activity [31] 72% | residual activity [32] 82% | residual activity [33] 80% | residual activity [34] 100% | residual activity [35] 100% | residual activity [36] 100% | residual activity [37] 100% | residual activity [38] 77% | residual activity [39] 88% | residual activity [40] 100% | residual activity [41] 90% | residual activity [42] 100% | residual activity [43] 86% | residual activity [44] 87% | residual activity [45] 100%

From ChEMBL document CHEMBL4507329, “Data for DCP probe BTZO-1” (2021)
